Test results taken from ChEMBL document CHEMBL1140652 (Bioorg Med Chem Lett, 2007).
Values after ≈ are worked out from the molar mass of the structure shown.

Legend:
[1] = system: Haemophilus influenzae; test: microbe, parasite or virus in culture
Description: Antibacterial activity against Haemophilus influenzae HI3542

[2] = system: Enterococcus faecalis; test: microbe, parasite or virus in culture
Description: Antibacterial activity against Enterococcus faecalis MGH2 EF1-1

[3] = system: Streptococcus pneumoniae; test: microbe, parasite or virus in culture; conditions: SV1
Description: Antibacterial activity against Streptococcus pneumoniae SV1 SP3

[4] = system: Escherichia coli; test: microbe, parasite or virus in culture
Description: Inhibition of transcription and translation activity in Escherichia coli by luciferase reporter assay

[5] = system: Moraxella catarrhalis; test: microbe, parasite or virus in culture
Description: Antibacterial activity against Moraxella catarrhalis BC-3531

[6] = system: Staphylococcus aureus; test: microbe, parasite or virus in culture; conditions: SA1
Description: Antibacterial activity against Staphylococcus aureus UC76 SA1

[7] = physchem; conditions: potassium phosphate buffer, pH 6.5
Description: Aqueous solubility in potassium phosphate buffer at pH 6.5 by laser nephrometry

SMILES | MIC [1] | MIC [2] | MIC [3] | IC50 [4] | MIC [5] | MIC [6] | solubility kinetic [7]
CC(=O)NC[C@H]1CN(c2ccc3c(c2)CCCc2c(NC(C)C)n[nH]c2-3)C(=O)O1 | 8 µg/mL (≈ 20.1 µM) | 2 µg/mL (≈ 5.03 µM) | 0.5 µg/mL (≈ 1.26 µM) | 2200 nM | 8 µg/mL (≈ 20.1 µM) | 4 µg/mL (≈ 10.1 µM) | –
CC(=O)NC[C@H]1CN(c2ccc3c(c2)CCCc2c(NC(=O)C(O)CO)n[nH]c2-3)C(=O)O1 (some centres undefined) | 32 µg/mL (≈ 72.2 µM) | 16 µg/mL (≈ 36.1 µM) | 2 µg/mL (≈ 4.51 µM) | 780 nM | 32 µg/mL (≈ 72.2 µM) | 16 µg/mL (≈ 36.1 µM) | 46 µg/mL (≈ 104 µM)
CC(=O)NC[C@H]1CN(c2ccc3c(c2)CCCc2c(NCCc4ccccn4)n[nH]c2-3)C(=O)O1 | 8 µg/mL (≈ 17.4 µM) | 1 µg/mL (≈ 2.17 µM) | 0.5 µg/mL (≈ 1.09 µM) | 1700 nM | 8 µg/mL (≈ 17.4 µM) | 8 µg/mL (≈ 17.4 µM) | –
COc1ccc(CNc2n[nH]c3c2CCCc2cc(N4C[C@H](CNC(C)=O)OC4=O)ccc2-3)cc1 | 8 µg/mL (≈ 16.8 µM) | 1 µg/mL (≈ 2.1 µM) | 0.5 µg/mL (≈ 1.05 µM) | 2200 nM | 4 µg/mL (≈ 8.41 µM) | 1 µg/mL (≈ 2.1 µM) | –
COCCCNc1n[nH]c2c1CCCc1cc(N3C[C@H](CNC(C)=O)OC3=O)ccc1-2 | 16 µg/mL (≈ 37.4 µM) | 4 µg/mL (≈ 9.36 µM) | 1 µg/mL (≈ 2.34 µM) | 2900 nM | 16 µg/mL (≈ 37.4 µM) | 4 µg/mL (≈ 9.36 µM) | –
CC(=O)NC[C@H]1CN(c2ccc3c(c2)CCCc2c(NCCCN)n[nH]c2-3)C(=O)O1 | > 64 µg/mL | 8 µg/mL (≈ 19.4 µM) | 4 µg/mL (≈ 9.7 µM) | 450 nM | 32 µg/mL (≈ 77.6 µM) | 32 µg/mL (≈ 77.6 µM) | > 70 µg/mL
CC(=O)NC[C@H]1CN(c2ccc3c(c2)CCCc2c(N)n[nH]c2-3)C(=O)O1 | 4 µg/mL (≈ 11.3 µM) | 2 µg/mL (≈ 5.63 µM) | 0.5 µg/mL (≈ 1.41 µM) | 1200 nM | 2 µg/mL (≈ 5.63 µM) | 4 µg/mL (≈ 11.3 µM) | –
CC(=O)NC[C@H]1CN(c2ccc3c(c2)CCCc2c(Nc4ccccc4)n[nH]c2-3)C(=O)O1 | 4 µg/mL (≈ 9.27 µM) | 0.5 µg/mL (≈ 1.16 µM) | 0.5 µg/mL (≈ 1.16 µM) | – | 2 µg/mL (≈ 4.64 µM) | 1 µg/mL (≈ 2.32 µM) | –
CC(=O)NC[C@H]1CN(c2ccc3c(c2)CCCc2c(NCCc4ccc(O)cc4)n[nH]c2-3)C(=O)O1 | 4 µg/mL (≈ 8.41 µM) | 1 µg/mL (≈ 2.1 µM) | 0.5 µg/mL (≈ 1.05 µM) | 2100 nM | 2 µg/mL (≈ 4.21 µM) | 2 µg/mL (≈ 4.21 µM) | –
CCNc1n[nH]c2c1CCCc1cc(N3C[C@H](CNC(C)=O)OC3=O)ccc1-2 | 4 µg/mL (≈ 10.4 µM) | 1 µg/mL (≈ 2.61 µM) | 0.25 µg/mL (≈ 0.652 µM) | 1300 nM | 4 µg/mL (≈ 10.4 µM) | 1 µg/mL (≈ 2.61 µM) | –
CC(=O)NC[C@H]1CN(c2ccc3c(c2)CCCc2c(NCCN4CCOCC4)n[nH]c2-3)C(=O)O1 | 8 µg/mL (≈ 17.1 µM) | 8 µg/mL (≈ 17.1 µM) | 2 µg/mL (≈ 4.27 µM) | 1900 nM | 16 µg/mL (≈ 34.1 µM) | 16 µg/mL (≈ 34.1 µM) | –
CC(=O)NC[C@H]1CN(c2ccc3c(c2)CCCc2c(NCCCO)n[nH]c2-3)C(=O)O1 | 16 µg/mL (≈ 38.7 µM) | 8 µg/mL (≈ 19.3 µM) | 4 µg/mL (≈ 9.67 µM) | 1800 nM | 32 µg/mL (≈ 77.4 µM) | 8 µg/mL (≈ 19.3 µM) | –
CCCNc1n[nH]c2c1CCCc1cc(N3C[C@H](CNC(C)=O)OC3=O)ccc1-2 | 4 µg/mL (≈ 10.1 µM) | 1 µg/mL (≈ 2.52 µM) | 0.25 µg/mL (≈ 0.629 µM) | 2500 nM | 8 µg/mL (≈ 20.1 µM) | 2 µg/mL (≈ 5.03 µM) | –
CNc1n[nH]c2c1CCCc1cc(N3C[C@H](CNC(C)=O)OC3=O)ccc1-2 | 4 µg/mL (≈ 10.8 µM) | 1 µg/mL (≈ 2.71 µM) | 0.5 µg/mL (≈ 1.35 µM) | 1000 nM | 2 µg/mL (≈ 5.41 µM) | 2 µg/mL (≈ 5.41 µM) | > 70 µg/mL
CCN(CC)CCCNc1n[nH]c2c1CCCc1cc(N3C[C@H](CNC(C)=O)OC3=O)ccc1-2 | 32 µg/mL (≈ 68.3 µM) | 32 µg/mL (≈ 68.3 µM) | 4 µg/mL (≈ 8.54 µM) | 13000 nM | 32 µg/mL (≈ 68.3 µM) | 64 µg/mL (≈ 137 µM) | –
CC(=O)NC[C@H]1CN(c2ccc3c(c2)CCCc2c(NCCN)n[nH]c2-3)C(=O)O1 | 16 µg/mL (≈ 40.2 µM) | 16 µg/mL (≈ 40.2 µM) | 4 µg/mL (≈ 10 µM) | 800 nM | 4 µg/mL (≈ 10 µM) | 32 µg/mL (≈ 80.3 µM) | > 70 µg/mL
CC(=O)NC[C@H]1CN(c2ccc3c(c2)CCCc2c(NCc4ccccc4)n[nH]c2-3)C(=O)O1 | 8 µg/mL (≈ 18 µM) | 1 µg/mL (≈ 2.24 µM) | 1 µg/mL (≈ 2.24 µM) | 2000 nM | 4 µg/mL (≈ 8.98 µM) | 2 µg/mL (≈ 4.49 µM) | –
CC(=O)NC[C@H]1CN(c2ccc3c(c2)CCCc2c(NC(=O)CO)n[nH]c2-3)C(=O)O1 | 16 µg/mL (≈ 38.7 µM) | 4 µg/mL (≈ 9.68 µM) | 4 µg/mL (≈ 9.68 µM) | 1300 nM | 16 µg/mL (≈ 38.7 µM) | 16 µg/mL (≈ 38.7 µM) | –
CC(=O)NC[C@H]1CN(c2ccc3c(c2)CCCc2cn[nH]c2-3)C(=O)O1 | 2 µg/mL (≈ 5.88 µM) | 0.25 µg/mL (≈ 0.734 µM) | 0.25 µg/mL (≈ 0.734 µM) | 450 nM | 2 µg/mL (≈ 5.88 µM) | 0.5 µg/mL (≈ 1.47 µM) | 14 µg/mL (≈ 41.1 µM)
COCCNc1n[nH]c2c1CCCc1cc(N3C[C@H](CNC(C)=O)OC3=O)ccc1-2 | 1 µg/mL (≈ 2.42 µM) | 2 µg/mL (≈ 4.84 µM) | 1 µg/mL (≈ 2.42 µM) | 2600 nM | 8 µg/mL (≈ 19.3 µM) | 2 µg/mL (≈ 4.84 µM) | –
